Source: patent US20060069132A1, “Azolecarboxamide herbicides” (priority 2004, published 2006)

Legend:
barnyardgrass = assay: Test A pre-/postemergence herbicide test; type: in vivo, Echinochloa crus-galli
Procedure, shortened: (§1)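 Visual injury rating on a 0–100 scale (0 no effect, 100 complete control) versus untreated controls, about ten days after treatment in greenhouse. Pre: directed soil spray onto seeded sandy loam. Post: spray to runoff on plants 2–10 cm tall at one- to two-leaf stage.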

large crabgrass = assay: Test A pre-/postemergence herbicide test; type: in vivo, Digitaria sanguinalis
Procedure, shortened: as §1

redroot pigweed = assay: Test A pre-/postemergence herbicide test; type: in vivo, Amaranthus retroflexus
Procedure, shortened: as §1

blackgrass = assay: Test B postemergence herbicide test; type: in vivo, Alopecurus myosuroides
Procedure, shortened: (§2)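 Formulated test chemicals went onto postemergence plants measuring 2 to 18 cm, at one to four leaves. For the paddy assay, species had reached two leaves. Scoring took place 13–15 days later by eye, relative to untreated plants, using 0 for no effect up to 100 for full control.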

[1] = test system: small flower umbrella sedge; assay: Test B flooded paddy test; type: in vivo, Cyperus difformis; details: 1000 g ai/ha, scale 0 to 100 (0 no effect, 100 complete control)
Procedure, shortened: as §2

bermudagrass = assay: Test C pre-/postemergence herbicide test; type: in vivo, Cynodon dactylon; details: for Bermudagrass plant response rating: 500 g ai/ha
Procedure, shortened: (§3)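 Pre- and postemergence application, solvent/surfactant formulation; post at 1- to 4-leaf stage (2–18 cm). Greenhouse 12–14 d. Visual rating vs controls, 0 = no effect, 100 = complete control.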

woolly cupgrass = assay: Test C pre-/postemergence herbicide test; type: in vivo, Eriochloa villosa
Procedure, shortened: as §3

goosegrass = assay: Test C pre-/postemergence herbicide test; type: in vivo, Eleusine indica
Procedure, shortened: as §3

[2] = Postemergence, 500 g ai/ha, 0 to 100 scale, 0 no effect, 100 complete control
[3] = Postemergence, 2000 g ai/ha, 0 to 100 scale, 0 no effect, 100 complete control
[4] = Preemergence, 2000 g ai/ha, visual rating, 0 to 100 scale (0 no effect, 100 complete control)
[5] = preemergence, 500 g ai/ha, visual injury, 0 to 100 scale (0 no effect, 100 complete control)
[6] = 125 g ai/ha, visual rating, scale 0 (no effect) to 100 (complete control), postemergence
[7] = postemergence, 500 g ai/ha, scale 0 to 100, 0 is no effect, 100 is complete control
[8] = 62 g ai/ha, preemergence, scale 0 to 100, 0 no effect, 100 complete control
[9] = 125 g ai/ha, scale 0 (no effect) to 100 (complete control), visual, 12 to 14 days, preemergence
[10] = 250 g ai/ha, scale 0-100, preemergence
[11] = Preemergence, scale 0 to 100, 0 no effect, 100 complete control
[12] = 62 g ai/ha, preemergence, scale 0 to 100
[13] = 500 g ai/ha, scale 0 to 100 (0 no effect, 100 complete control), visual, 12 to 14 days, preemergence
[14] = Preemergence, 500 g ai/ha, visual rating, 0 to 100 scale (0 no effect, 100 complete control)
[15] = Preemergence, 2000 g ai/ha, 0 to 100 scale, 0 no effect, 100 complete control
[16] = 250 g ai/ha, scale 0 to 100 (0 no effect, 100 complete control), visual, 12 to 14 days, preemergence
[17] = Postemergence, 125 g ai/ha, scale 0 to 100, 0 no effect, 100 complete control
[18] = Postemergence, 250 g ai/ha, scale 0 to 100, 0 no effect, 100 complete control
[19] = postemergence, 62 g ai/ha, scale 0 to 100
[20] = postemergence, 125 g ai/ha, scale 0 to 100
[21] = Postemergence, 500 g ai/ha, scale 0 to 100, 0 no effect, 100 complete control
[22] = Postemergence, 500 g ai/ha, scale 0 to 100

Structure (SMILES): CCN(CC)C(=O)c1cccc(NC(=O)c2cc(C(C)(C)C)nn2C)n1 [Compound 314]
- Barnyardgrass plant response rating (barnyardgrass; [2]): 35
- Plant response rating, Barnyardgrass (barnyardgrass; [3]): 75
- Barnyardgrass plant response rating (barnyardgrass; [4]): 90
- Barnyardgrass plant response rating (barnyardgrass; [5]): 50
- Crabgrass, Large plant response rating (large crabgrass; [2]): 20
- Plant response rating, Crabgrass, Large (large crabgrass; [3]): 60
- Crabgrass, Large plant response rating (large crabgrass; [4]): 90
- Crabgrass, Large plant response rating (large crabgrass; [5]): 55
- Pigweed plant response rating (redroot pigweed; [2]): 80
- Plant response rating, Pigweed (redroot pigweed; [3]): 100
- Pigweed plant response rating (redroot pigweed; [4]): 90
- Pigweed plant response rating (redroot pigweed; [5]): 80
- Blackgrass plant response rating (blackgrass; [6]): 10
- Blackgrass plant response rating (blackgrass; [7]): 20
- Sedge, Umbrella plant response rating [1]: 60
- Plant response rating, Bermudagrass (bermudagrass; [8]): 10
- Plant response rating, Bermudagrass (bermudagrass; [9]): 60
- Plant response rating, Bermudagrass (bermudagrass; [10]): 60
- Bermudagrass plant response rating (bermudagrass; [11]): 90
- Plant response rating, Cupgrass, Woolly (woolly cupgrass; [12]): 0
- Plant response rating, Cupgrass, Woolly (woolly cupgrass; [9]): 0
- Plant response rating, Cupgrass, Woolly (woolly cupgrass; [10]): 0
- Plant response rating, Cupgrass, Woolly (woolly cupgrass; [13]): 20
- Plant response rating, Goosegrass (goosegrass; [12]): 0
- Plant response rating, Goosegrass (goosegrass; [9]): 40
- Plant response rating, Goosegrass (goosegrass; [10]): 65
- Plant response rating, Goosegrass (goosegrass; [13]): 85

Structure (SMILES): CCn1nc(C(C)(C)C)cc1C(=O)Nc1cccc(C(=O)NC2CC2)c1 [Compound 44]
- Plant response rating, Barnyardgrass (barnyardgrass; [2]): 90
- Plant response rating, Barnyardgrass (barnyardgrass; [3]): 100
- Barnyardgrass plant response rating (barnyardgrass; [14]): 75
- Barnyardgrass plant response rating (barnyardgrass; [15]): 90
- Plant response rating, Crabgrass, Large (large crabgrass; [2]): 55
- Plant response rating, Crabgrass, Large (large crabgrass; [3]): 80
- Crabgrass, Large plant response rating (large crabgrass; [14]): 45
- Crabgrass, Large plant response rating (large crabgrass; [15]): 90
- Plant response rating, Pigweed (redroot pigweed; [2]): 100
- Plant response rating, Pigweed (redroot pigweed; [3]): 100
- Pigweed plant response rating (redroot pigweed; [14]): 100
- Pigweed plant response rating (redroot pigweed; [15]): 100
- Blackgrass plant response rating (blackgrass; Postemergence, 125 g ai/ha, scale 0 (no effect) to 100 (complete control)): 10
- Plant response rating, Blackgrass (blackgrass; Postemergence, 500 g ai/ha, visual rating after 13 to 15 days, scale 0 (no effect) to 100 (complete control)): 20
- Sedge, Umbrella plant response rating ([1]; visual rating, 13 to 15 days): 70
- Plant response rating (0 = no effect, 100 = complete control), Bermudagrass (bermudagrass; 62 g ai/ha, preemergence): 0
- Plant response rating, Bermudagrass (bermudagrass; [16]): 20
- Plant response rating, Bermudagrass (bermudagrass; [17]): 90
- Plant response rating (0 = no effect, 100 = complete control), Cupgrass, Woolly (woolly cupgrass; 62 g ai/ha, preemergence): 0
- Plant response rating, Cupgrass, Woolly (woolly cupgrass; [9]): 10
- Plant response rating, Cupgrass, Woolly (woolly cupgrass; [16]): 10
- Plant response rating, Cupgrass, Woolly (woolly cupgrass; [17]): 60
- Plant response rating, Cupgrass, Woolly (woolly cupgrass; [18]): 60
- Plant response rating, Cupgrass, Woolly (woolly cupgrass; [19]): 50
- Plant response rating (0 = no effect, 100 = complete control), Goosegrass (goosegrass; 62 g ai/ha, preemergence): 10
- Plant response rating, Goosegrass (goosegrass; [9]): 30
- Plant response rating, Goosegrass (goosegrass; [16]): 50
- Plant response rating, Goosegrass (goosegrass; [17]): 40
- Plant response rating, Goosegrass (goosegrass; [18]): 50
- Plant response rating, Goosegrass (goosegrass; [19]): 40

Structure (SMILES): CCn1nc(C(C)(C)C)cc1C(=O)Nc1cc(OC(F)(F)F)ccc1F [Compound 338]
- Barnyardgrass plant response rating (barnyardgrass; [2]): 20
- Plant response rating, Barnyardgrass (barnyardgrass; [3]): 35
- Barnyardgrass plant response rating (barnyardgrass; [4]): 95
- Barnyardgrass plant response rating (barnyardgrass; [5]): 60
- Crabgrass, Large plant response rating (large crabgrass; [2]): 20
- Plant response rating, Crabgrass, Large (large crabgrass; [3]): 45
- Crabgrass, Large plant response rating (large crabgrass; [4]): 100
- Crabgrass, Large plant response rating (large crabgrass; [5]): 65
- Pigweed plant response rating (redroot pigweed; [2]): 70
- Plant response rating, Pigweed (redroot pigweed; [3]): 95
- Pigweed plant response rating (redroot pigweed; [4]): 90
- Pigweed plant response rating (redroot pigweed; [5]): 55
- Blackgrass plant response rating (blackgrass; [6]): 20
- Blackgrass plant response rating (blackgrass; [7]): 40
- Sedge, Umbrella plant response rating [1]: 80
- Bermudagrass plant response rating (bermudagrass; Postemergence, scale 0 to 100): 5
- Plant response rating, Bermudagrass (bermudagrass; [18]): 0
- Plant response rating, Bermudagrass (bermudagrass; [20]): 0
- Plant response rating, Bermudagrass (bermudagrass; [19]): 0
- Plant response rating, Cupgrass, Woolly (woolly cupgrass; [18]): 0
- Plant response rating, Cupgrass, Woolly (woolly cupgrass; [21]): 0
- Plant response rating, Cupgrass, Woolly (woolly cupgrass; [20]): 0
- Plant response rating, Cupgrass, Woolly (woolly cupgrass; [19]): 0
- Plant response rating, Goosegrass (goosegrass; [18]): 10
- Plant response rating, Goosegrass (goosegrass; [21]): 10
- Plant response rating, Goosegrass (goosegrass; [20]): 5
- Plant response rating, Goosegrass (goosegrass; [19]): 0

Structure (SMILES): C=CCNC(=O)c1cccc(NC(=O)c2cc(C(C)(C)C)nn2C)n1 [Compound 318]
- Barnyardgrass plant response rating (barnyardgrass; [2]): 65
- Plant response rating, Barnyardgrass (barnyardgrass; [3]): 90
- Barnyardgrass plant response rating (barnyardgrass; [4]): 95
- Barnyardgrass plant response rating (barnyardgrass; [5]): 65
- Crabgrass, Large plant response rating (large crabgrass; [2]): 30
- Plant response rating, Crabgrass, Large (large crabgrass; [3]): 70
- Crabgrass, Large plant response rating (large crabgrass; [4]): 70
- Crabgrass, Large plant response rating (large crabgrass; [5]): 55
- Pigweed plant response rating (redroot pigweed; [2]): 95
- Plant response rating, Pigweed (redroot pigweed; [3]): 100
- Pigweed plant response rating (redroot pigweed; [4]): 100
- Pigweed plant response rating (redroot pigweed; [5]): 75
- Blackgrass plant response rating (blackgrass; [6]): 10
- Blackgrass plant response rating (blackgrass; [7]): 10
- Sedge, Umbrella plant response rating [1]: 80
- Plant response rating, Bermudagrass (bermudagrass; [8]): 10
- Plant response rating, Bermudagrass (bermudagrass; [9]): 70
- Plant response rating, Bermudagrass (bermudagrass; [10]): 90
- Bermudagrass plant response rating (bermudagrass; Postemergence, scale 0 to 100): 80
- Bermudagrass plant response rating (bermudagrass; [11]): 95
- Plant response rating, Cupgrass, Woolly (woolly cupgrass; [12]): 0
- Plant response rating, Cupgrass, Woolly (woolly cupgrass; [9]): 0
- Plant response rating, Cupgrass, Woolly (woolly cupgrass; [10]): 0
- Plant response rating, Cupgrass, Woolly (woolly cupgrass; [13]): 10
- Cupgrass, Woolly plant response rating (woolly cupgrass; [22]): 20
- Plant response rating, Cupgrass, Woolly (woolly cupgrass; [18]): 10
- Plant response rating, Cupgrass, Woolly (woolly cupgrass; [20]): 0
- Plant response rating, Cupgrass, Woolly (woolly cupgrass; [19]): 0
- Plant response rating, Goosegrass (goosegrass; [12]): 0
- Plant response rating, Goosegrass (goosegrass; [9]): 10
- Plant response rating, Goosegrass (goosegrass; [10]): 80
- Plant response rating, Goosegrass (goosegrass; [13]): 90
- Goosegrass plant response rating (goosegrass; [22]): 5
- Plant response rating, Goosegrass (goosegrass; [18]): 5
- Plant response rating, Goosegrass (goosegrass; [20]): 0
- Plant response rating, Goosegrass (goosegrass; [19]): 0
